Measured values from ChEMBL document CHEMBL5375999, “Discovery of a Dual Tubulin and Neuropilin-1 (NRP1) Inhibitor with Potent In Vivo Anti-Tumor Activity via Pharmacophore-based Docking Screening, Structure Optimization, and Biological Evaluation” (J Med Chem, 2023).
The source made the active and inactive calls. The calls are words filed in the database; no cut-off is given here.

Tests used:
Tubulin (Homo sapiens) = Tubulin (Homo sapiens) (UniProt P68371+Q9H4B7+P0DPH7+P68366+Q13509+Q71U36+P04350+Q3ZCM7+P07437+P68363+Q9BQE3+Q6PEY2+Q13885+Q9BVA1+Q9BUF5); assay: Inhibition of tubulin polymerization (unknown origin) at 12 uM by spectrophotometric analysis relative to control; type: protein-complex assay
[1] = target: Neuropilin-1 (Homo sapiens) (UniProt O14786); assay: Inhibition of [125I]-VEGF-A165 binding to NRP1 (unknown origin) transfected in HUVECs at 12 uM incubated for 2 hrs by plate reader analysis relative to control; type: cell-based; conditions: HUVEC
Target sequence in this assay (O14786 whole entry): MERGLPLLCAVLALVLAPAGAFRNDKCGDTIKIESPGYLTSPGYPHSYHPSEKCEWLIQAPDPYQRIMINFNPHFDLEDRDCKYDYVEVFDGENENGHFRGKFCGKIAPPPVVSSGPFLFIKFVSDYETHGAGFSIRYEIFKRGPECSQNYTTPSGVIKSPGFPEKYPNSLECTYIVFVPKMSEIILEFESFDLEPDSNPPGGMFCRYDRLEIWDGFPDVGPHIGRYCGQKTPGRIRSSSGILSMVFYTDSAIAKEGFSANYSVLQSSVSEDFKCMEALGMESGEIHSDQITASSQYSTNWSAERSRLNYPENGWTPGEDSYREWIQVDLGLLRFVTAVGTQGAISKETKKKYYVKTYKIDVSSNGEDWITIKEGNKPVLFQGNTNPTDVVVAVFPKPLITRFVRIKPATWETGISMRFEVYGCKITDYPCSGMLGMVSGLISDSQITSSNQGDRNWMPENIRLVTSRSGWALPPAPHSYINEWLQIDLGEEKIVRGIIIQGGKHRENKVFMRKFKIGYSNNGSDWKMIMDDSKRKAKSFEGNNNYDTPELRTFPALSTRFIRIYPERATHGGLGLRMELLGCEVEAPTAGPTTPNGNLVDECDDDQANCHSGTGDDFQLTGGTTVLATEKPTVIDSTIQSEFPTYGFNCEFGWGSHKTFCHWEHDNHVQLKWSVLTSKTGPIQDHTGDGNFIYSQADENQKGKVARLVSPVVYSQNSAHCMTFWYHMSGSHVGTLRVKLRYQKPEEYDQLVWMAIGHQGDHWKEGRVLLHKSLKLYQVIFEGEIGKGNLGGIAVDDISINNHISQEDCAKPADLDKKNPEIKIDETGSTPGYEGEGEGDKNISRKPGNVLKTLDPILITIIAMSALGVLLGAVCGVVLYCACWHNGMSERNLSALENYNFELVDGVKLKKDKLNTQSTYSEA

Tubulin = assay: Inhibition of tubulin polymerization (unknown origin) by spectrophotometric analysis; type: protein-complex assay, Homo sapiens
[2] = target: Neuropilin-1 (Homo sapiens) (UniProt O14786); assay: Inhibition of [125I]-VEGF-A165 binding to NRP1 (unknown origin) transfected in HUVECs incubated for 2 hrs by plate reader analysis; conditions: HUVEC
Target sequence in this assay (O14786 whole entry, looked up): as the sequence (O14786 whole entry) above

PC-3 = assay: Cytotoxicity against human PC-3 cells assessed as inhibition of cell viability incubated for 48 hrs by MTT assay; type: functional, cell-based; conditions: PC-3, 48 h
[3] = Cytotoxicity against human PrEC cells assessed as inhibition of cell viability incubated for 48 hrs by MTT assay; type: toxicity, cell-based

COc1cc(-c2cc(C(F)(F)F)n3ncc(C(=O)NCC(C)C)c3n2)cc(OC)c1OC
inhibition (Tubulin (Homo sapiens)): 21%

COc1cc([C@@H]2CC(=O)c3cnc(N4CCN(CCO)CC4)nc3C2)cc(OC)c1OC
inhibition (Tubulin (Homo sapiens)): 48%

COc1cc(O)c(/C=C/C(=O)c2cc(OC)c(OC)c(OC)c2)c(OC)c1
inhibition (Tubulin (Homo sapiens)): 71%

Cc1ccc(S(=O)(=O)N[C@@H](CCCNC(=N)N)C(=O)O)cc1
inhibition [1]: 82%

N=C(N)NCCC[C@H](NC(=O)c1ccccc1)C(=O)O
inhibition [1]: 79%

COc1cc(-c2cc(-n3c(S)nc4ccccc4c3=O)[nH]n2)cc(OC)c1OC
inhibition (Tubulin (Homo sapiens)): 28%

COC(=O)[C@H](CCCNC(=N)N)NC(=O)CCCC(=O)Nc1cc(/C=C\c2cc(OC)c(OC)c(OC)c2)ccc1OC
IC50 (Tubulin): 7.96 µM
inhibition [2]: inactive

COc1cc(C(O)c2cc3c(cc2CO)OCO3)cc(OC)c1OC (stereo not drawn)
inhibition [1]: 47%
inhibition (Tubulin (Homo sapiens)): 64%

COc1cc(C(=O)/C=C/c2c[nH]c3ccc(Br)cc23)cc(OC)c1OC
inhibition (Tubulin (Homo sapiens)): 63%

COc1ccc(/C=C\c2cc(OC)c(OC)c(OC)c2)cc1NC(=O)/C=C/C(=O)N[C@@H](CCCNC(=N)N)C(=O)O
IC50 (Tubulin): 1.53 µM

COC(=O)[C@H](CCCNC(=N)N)NC(=O)CCCCCCC(=O)Nc1cc(/C=C\c2cc(OC)c(OC)c(OC)c2)ccc1OC
inhibition [2]: inactive

COc1cc2c(cc1OC)C(c1cc(OC)c(OC)c(OC)c1)OCC2 (stereo not drawn)
inhibition (Tubulin (Homo sapiens)): 69%

N=C(N)NCC(C[C@H](NCc1ccccc1)C(=O)O)[N+](=O)[O-] (stereo partly drawn)
inhibition [1]: 60%

COc1ccc(/C=C\c2cc(OC)c(OC)c(OC)c2)cc1NC(=O)CCCCC(=O)N[C@@H](CCCNC(=N)N)C(=O)O
IC50 (Tubulin): 7.15 µM

COc1cc(C(=O)/C=C/Nc2cccc(C)c2)cc(OC)c1OC
inhibition (Tubulin (Homo sapiens)): 45%

N=C(N)NCCC[C@H](NC(=O)c1sccc1NS(=O)(=O)c1cccc2nsnc12)C(=O)O
inhibition [1]: 87%

COC(=O)[C@H](CCCNC(=N)N)NC(=O)/C=C/C(=O)Nc1cc(/C=C\c2cc(OC)c(OC)c(OC)c2)ccc1OC
IC50 (Tubulin): 4.14 µM
inhibition [2]: inactive

COC(=O)[C@H](CCCNC(=N)N)NC(=O)CCCCC(=O)Nc1cc(/C=C\c2cc(OC)c(OC)c(OC)c2)ccc1OC
IC50 (Tubulin): 9.34 µM
inhibition [2]: inactive

COc1ccc(/C=C\c2cc(OC)c(OC)c(OC)c2)cc1NC(=O)CCCC(=O)N[C@@H](CCCNC(=N)N)C(=O)O
IC50 (Tubulin): 5.57 µM

COc1ccc2c(c1)OC(c1cc(OC)c(OC)c(OC)c1)CC2=O (stereo not drawn)
inhibition (Tubulin (Homo sapiens)): 52%

COc1cc(C2OC2C(=O)c2ccccc2)cc(OC)c1OC (stereo not drawn)
inhibition (Tubulin (Homo sapiens)): 15%

COc1ccc(/C=C\c2cc(OC)c(OC)c(OC)c2)cc1O [COMBRETASTATIN A4]
inhibition [2]: inactive
IC50 (PC-3): 0.06 µM
IC50 at 48 h [3]: 0.08 µM
